Measured values taken from patent US20060094676A1, “Compositions and methods for treating cancer using compositions comprising an inhibitor of endothelin receptor activity” (priority 2004, published 2006).

Assays:
Assay type in all cases: cell-based, human
[1] = test system: Me 190/DA (Cut-met) melanoma cells; assay: MTS assay of cell viability after BQ788; settings: incubation with BQ788 for seven days
Description: (§1) Cells were cultured on a matrigel matrix that was histologically examined after two weeks (A-F). While the primary melanoma cells remained on top of the gel only (A and B), a fraction of the Cut-met cells invaded the gel (C and D) and the LN-met cells invaded the matrix extensively (E and F). Cell lysates of the three lines were subjected to western blot analysis using an anti-ETRB Ab (G) and an anti-tubulin Ab (H). Untreated, control (vehicle treated), and BQ788 treated cells were subjected to MTS assay to quantify any reduction in cell number. The mean values were calculated and plotted (I) as the percentage of the vehicle treated value+/− SEM.
(§2) Human melanoma cell lines Me191-1/GG (Primary), Me 190/DA (Cut-met), Me 275/EP (LN-met) were obtained from the Ludwig Institute (Epalinges, Switzerland) and SK-MEL-28 was obtained from the American Tissue Culture Collection (ATCC). […] After removal of the inserts, MTS solution was added to the well to quantify the cells that migrated through the insert and were attached to the bottom of the well by measuring the OD at 492 nm (Promega). […]
(§3) To address the relationship between the level of progression of human melanoma and responsiveness to BQ788 treatment, 3 cell lines that had been grown in culture for a restricted number of passages were used. […] This effect was quantified using the MTS assay.

[2] = test system: Me 275/EP (LN-met) melanoma cells; assay: MTS assay of cell viability after BQ788; settings: incubation with BQ788 for seven days; LN-met line
Description: as §1, §2, §3

[3] = test system: PARP-3; assay: Real-time RT-PCR of PARP-3 transcripts; settings: primary melanoma cells; BQ788 treatment
Description: Equal amounts of RNA from cells that were treated with BQ788 for 3 days were subjected to real-time RT-PCR analysis for the detection of BCL-2A1 (A) and ADP ribosyltransferase 3 (B) transcripts. Total amounts are represented in A while relative (to control) values are shown in B. Differences in expression levels are shown as x fold decrease and are statistically significant (p<0.05) unless a column in marked as non significant (N.S.). Lysates of BQ788 treated cells and controls were subjected to an apoptosis ELISA detection test (C). SK-MEL-28 cells were cultured with pan caspase inhibitor (D) or with caspase 6 inhibitor (E) with or without BQ788 for 2.5 days. […] SK-MEL-28 cells were cultured for 3 days in the presence of BQ788 and assayed for caspase 6 activity (F). The difference between the columns is statistically significant (p<0.05).
RNA was prepared from the different cell lines in different culture conditions using SV total RNA isolation kit (Promega) according to the manufacturer's protocol. For each sample RNA concentration was determined using the total RNA nano procedure of an Agilent bioanalyzer. […] A standard curve of Ct versus RNA quantity was established and accordingly the Ct in the unknown samples was correlated to quantity of transcript. […]

CCCC[C@@H](NC(=O)[C@@H](Cc1cn(C(=O)OC)c2ccccc12)NC(=O)[C@H](CC(C)(C)C)NC(=O)N1[C@H](C)CCC[C@@H]1C)C(=O)O [BQ788, N-cis-2,6-dimethylpiperidinocarbonyl-L-γ-methylleucyl-D-1-methoxycarbonyltrptophanyl-D-norleucine]
reduction of viability [1]: 45% | reduction of viability [2]: 96% | PARP-3 levels [3]: did not show a decrease
